Legend:
RET V804M = RET V804M (Homo sapiens, UniProt P07949, V804M); test: Inhibitory activity against RET kinase mutant RET V804M; type: biochemical; conditions: read-out: median inhibitory activity (IC50) against RET V804M
Ba/F3-KIF5B-RET cell = biological target: T1, Ba/F3-KIF5B-RET cell (Homo sapiens, UniProt P07949); test: CellTiter-Glo luminescence assay, inhibitory activity against Ba/F3-KIF5B-RET cell; type: cell-based; conditions: 72 h, read-out: Ba/F3-KIF5B-RET cell activity
T1 construct: fused on or other part: P33176 (Kinesin-1 heavy chain)
T1 sequence (P07949 whole entry, stated change not applied, the tested form may be a part): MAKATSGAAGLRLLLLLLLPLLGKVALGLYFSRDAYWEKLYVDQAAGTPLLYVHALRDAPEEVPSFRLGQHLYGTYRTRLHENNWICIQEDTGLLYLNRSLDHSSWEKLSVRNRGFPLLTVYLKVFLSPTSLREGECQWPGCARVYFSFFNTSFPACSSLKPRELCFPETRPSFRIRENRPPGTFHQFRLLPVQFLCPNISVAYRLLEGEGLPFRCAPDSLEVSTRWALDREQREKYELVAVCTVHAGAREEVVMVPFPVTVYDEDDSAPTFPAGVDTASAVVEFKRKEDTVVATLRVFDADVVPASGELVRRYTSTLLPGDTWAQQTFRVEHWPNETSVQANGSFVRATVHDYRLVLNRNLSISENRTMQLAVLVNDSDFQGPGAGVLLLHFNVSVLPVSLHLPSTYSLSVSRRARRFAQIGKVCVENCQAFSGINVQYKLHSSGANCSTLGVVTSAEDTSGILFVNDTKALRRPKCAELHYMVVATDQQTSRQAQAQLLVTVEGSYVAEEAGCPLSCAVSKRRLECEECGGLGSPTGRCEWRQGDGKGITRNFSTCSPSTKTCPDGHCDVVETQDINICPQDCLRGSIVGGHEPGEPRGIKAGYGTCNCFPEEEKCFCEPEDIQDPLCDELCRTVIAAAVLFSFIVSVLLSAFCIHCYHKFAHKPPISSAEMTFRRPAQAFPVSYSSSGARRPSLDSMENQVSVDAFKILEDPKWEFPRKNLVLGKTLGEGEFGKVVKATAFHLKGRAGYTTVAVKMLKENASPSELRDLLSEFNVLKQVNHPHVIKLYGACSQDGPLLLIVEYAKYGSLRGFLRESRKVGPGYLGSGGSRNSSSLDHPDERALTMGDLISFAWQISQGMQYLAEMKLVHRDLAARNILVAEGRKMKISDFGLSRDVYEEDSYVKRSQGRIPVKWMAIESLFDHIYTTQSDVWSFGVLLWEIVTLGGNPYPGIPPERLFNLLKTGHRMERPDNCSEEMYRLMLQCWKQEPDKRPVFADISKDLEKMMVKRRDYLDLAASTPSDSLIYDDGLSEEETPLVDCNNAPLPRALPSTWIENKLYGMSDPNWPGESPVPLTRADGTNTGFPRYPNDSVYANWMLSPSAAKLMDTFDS
Outline: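 Ba/F3 cells stably expressing human KIF5B-RET, 800 per well, treated 72 h at 37° C with 10 compound concentrations from 5000 to 0.254 nM (0.5% DMSO). Viability by CellTiter-Glo luminescence; IC50 from curve fitting.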

Wild-type RET kinase = Wild-type RET kinase (Homo sapiens, UniProt P07949); test: HTRF method for testing the inhibitory activity of compounds against RET; type: biochemical; conditions: HTRF; read-out: Wild-type RET kinase
Chain of Wild-type RET kinase (P07949 29-1114): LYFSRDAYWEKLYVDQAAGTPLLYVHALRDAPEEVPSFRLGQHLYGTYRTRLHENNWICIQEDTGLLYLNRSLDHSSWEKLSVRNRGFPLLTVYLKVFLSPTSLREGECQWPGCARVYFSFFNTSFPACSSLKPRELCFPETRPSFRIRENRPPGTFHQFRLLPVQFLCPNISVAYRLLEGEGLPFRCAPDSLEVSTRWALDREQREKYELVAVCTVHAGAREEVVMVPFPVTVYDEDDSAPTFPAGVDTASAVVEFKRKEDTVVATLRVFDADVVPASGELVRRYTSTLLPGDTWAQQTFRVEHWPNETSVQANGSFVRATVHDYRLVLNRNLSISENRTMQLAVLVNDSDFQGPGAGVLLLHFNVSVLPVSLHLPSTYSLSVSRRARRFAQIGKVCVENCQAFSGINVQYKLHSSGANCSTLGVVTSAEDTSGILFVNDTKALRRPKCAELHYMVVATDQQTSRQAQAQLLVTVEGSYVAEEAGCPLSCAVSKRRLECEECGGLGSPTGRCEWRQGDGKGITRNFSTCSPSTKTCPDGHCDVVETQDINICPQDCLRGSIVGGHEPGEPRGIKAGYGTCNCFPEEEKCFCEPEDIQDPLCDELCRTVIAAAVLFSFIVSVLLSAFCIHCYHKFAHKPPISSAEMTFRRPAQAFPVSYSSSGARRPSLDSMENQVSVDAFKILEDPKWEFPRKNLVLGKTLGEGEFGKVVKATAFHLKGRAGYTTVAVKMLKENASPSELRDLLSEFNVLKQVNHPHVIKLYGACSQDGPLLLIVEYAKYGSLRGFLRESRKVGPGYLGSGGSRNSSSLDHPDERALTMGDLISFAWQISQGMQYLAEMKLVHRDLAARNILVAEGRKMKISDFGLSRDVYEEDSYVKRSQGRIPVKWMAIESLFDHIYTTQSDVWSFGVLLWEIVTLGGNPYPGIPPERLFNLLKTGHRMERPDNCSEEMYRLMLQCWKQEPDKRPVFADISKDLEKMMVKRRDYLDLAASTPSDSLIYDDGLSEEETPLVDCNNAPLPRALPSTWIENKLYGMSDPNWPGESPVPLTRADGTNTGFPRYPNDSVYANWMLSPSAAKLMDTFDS

CCDC6-RET = biological target: T2, CCDC6-RET (Homo sapiens, UniProt P07949); test: Inhibitory activity against RET gene fusion CCDC6-RET; type: biochemical; conditions: read-out: median inhibitory activity (IC50) against CCDC6-RET
T2 construct: CCDC6 (fusion partner, N-terminal part); the other entry of the earlier key: CCDC6 (Q16204, Coiled-coil domain-containing protein 6)
T2 sequence (P07949 with tags, fused parts or gaps): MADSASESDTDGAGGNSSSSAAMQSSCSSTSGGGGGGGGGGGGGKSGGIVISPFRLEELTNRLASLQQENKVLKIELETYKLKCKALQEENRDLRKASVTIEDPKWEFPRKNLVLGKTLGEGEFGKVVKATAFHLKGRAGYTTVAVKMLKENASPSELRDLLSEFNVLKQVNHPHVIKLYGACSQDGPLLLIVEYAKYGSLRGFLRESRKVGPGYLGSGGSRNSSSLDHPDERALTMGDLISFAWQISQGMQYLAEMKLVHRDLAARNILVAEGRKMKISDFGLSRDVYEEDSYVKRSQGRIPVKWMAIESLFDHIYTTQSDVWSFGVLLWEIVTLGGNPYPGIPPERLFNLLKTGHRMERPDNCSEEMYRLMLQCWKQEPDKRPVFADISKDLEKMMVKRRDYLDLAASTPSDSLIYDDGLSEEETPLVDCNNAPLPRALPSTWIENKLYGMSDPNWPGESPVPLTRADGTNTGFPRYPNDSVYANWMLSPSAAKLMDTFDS

RET M918T = RET M918T (Homo sapiens, UniProt P07949, M918T); test: Inhibitory activity against RET kinase mutant RET M918T; type: biochemical; conditions: read-out: median inhibitory activity (IC50) against RET M918T
Chain of RET M918T (P07949 29-1114 M918T): as the sequence (P07949 29-1114) above, with M890T counted along it

RET G810R kinase = RET G810R kinase (Homo sapiens, UniProt P07949, G810R); test: HTRF method for testing the inhibitory activity against RET G810R; type: biochemical; conditions: for IC50: HTRF; for inhibitory activity against G810R (in words): mutant strain of RET kinase
Chain of RET G810R kinase (P07949 29-1114 G810R): as the sequence (P07949 29-1114) above, with G782R counted along it

VEGFR2 kinase = VEGFR2 kinase (Homo sapiens, UniProt P35968); test: HTRF method for testing the inhibitory activity of compounds against VEGFR2; type: biochemical
Chain of VEGFR2 kinase (P35968 20-1356): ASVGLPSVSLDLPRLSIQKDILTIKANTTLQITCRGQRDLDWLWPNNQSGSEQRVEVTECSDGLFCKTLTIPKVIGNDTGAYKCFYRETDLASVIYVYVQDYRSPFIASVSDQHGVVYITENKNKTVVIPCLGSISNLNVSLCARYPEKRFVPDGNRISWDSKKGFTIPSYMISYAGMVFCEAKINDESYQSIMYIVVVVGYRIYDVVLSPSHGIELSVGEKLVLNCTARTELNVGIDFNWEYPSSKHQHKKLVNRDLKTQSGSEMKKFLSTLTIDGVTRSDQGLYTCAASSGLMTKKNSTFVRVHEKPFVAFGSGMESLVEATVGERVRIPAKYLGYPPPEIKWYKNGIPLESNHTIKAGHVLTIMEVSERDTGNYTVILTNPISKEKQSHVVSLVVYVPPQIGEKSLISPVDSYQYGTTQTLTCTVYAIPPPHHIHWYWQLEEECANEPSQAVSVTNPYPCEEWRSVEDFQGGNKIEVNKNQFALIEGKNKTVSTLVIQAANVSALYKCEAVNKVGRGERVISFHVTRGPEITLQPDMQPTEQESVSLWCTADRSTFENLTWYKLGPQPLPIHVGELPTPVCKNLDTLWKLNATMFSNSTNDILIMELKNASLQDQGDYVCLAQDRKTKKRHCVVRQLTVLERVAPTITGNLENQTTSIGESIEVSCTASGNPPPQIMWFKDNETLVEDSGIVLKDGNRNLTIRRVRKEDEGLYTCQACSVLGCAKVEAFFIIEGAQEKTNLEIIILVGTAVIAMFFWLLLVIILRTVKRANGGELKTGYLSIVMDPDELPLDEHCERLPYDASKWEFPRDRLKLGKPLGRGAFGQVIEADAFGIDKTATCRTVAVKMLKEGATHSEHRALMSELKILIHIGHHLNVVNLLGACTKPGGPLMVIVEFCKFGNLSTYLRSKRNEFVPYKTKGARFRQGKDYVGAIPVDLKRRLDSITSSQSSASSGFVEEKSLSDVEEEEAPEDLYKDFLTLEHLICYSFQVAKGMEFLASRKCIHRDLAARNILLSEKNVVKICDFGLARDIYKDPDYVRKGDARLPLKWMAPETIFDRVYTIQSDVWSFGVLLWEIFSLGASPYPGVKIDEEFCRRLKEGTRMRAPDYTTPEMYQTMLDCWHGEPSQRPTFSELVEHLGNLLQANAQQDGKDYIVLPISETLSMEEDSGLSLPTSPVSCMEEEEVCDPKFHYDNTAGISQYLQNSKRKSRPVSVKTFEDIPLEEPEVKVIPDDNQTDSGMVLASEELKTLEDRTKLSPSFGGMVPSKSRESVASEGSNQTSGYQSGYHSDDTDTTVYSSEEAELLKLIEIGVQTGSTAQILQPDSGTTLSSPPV

RET G810S kinase = RET G810S kinase (Homo sapiens, UniProt P07949, G810S); test: HTRF method for testing the inhibitory activity against RET G810S; type: biochemical; conditions: for IC50: HTRF; for inhibitory activity against G810S (in words): mutant strain of RET kinase
Chain of RET G810S kinase (P07949 29-1114 G810S): as the sequence (P07949 29-1114) above, with G782S counted along it

Chain of RET V804M (P07949 29-1114 V804M): as the sequence (P07949 29-1114) above, with V776M counted along it

Structure (SMILES) | IC50 (RET V804M) [nM] | GI50 (Ba/F3-KIF5B-RET cell) [nM] | IC50 (Wild-type RET kinase) [nM] | IC50 (CCDC6-RET) [nM] | IC50 (RET M918T) [nM] | IC50 (RET G810R kinase) [nM] | inhibitory activity against G810R (in words) (RET G810R kinase) | IC50 (VEGFR2 kinase) [nM] | IC50 (RET G810S kinase) [nM] | inhibitory activity against G810S (in words) (RET G810S kinase)
CCNc1cc(-c2cnc(N3CC4CC(C3)N4Cc3ccc(OC)nc3)cn2)c2c(C#N)cnn2c1 [Compound 29, 6-(ethylamino)-4-(5-(-6-((6-methoxypyridin-3-yl)methyl)-3,6-diazabicyclo[3.1.1]heptane-3-yl)pyrazin-2-yl)pyrazolo[1,5-a]pyridine-3-carbonitrile] | < 5 | 4.43 | 0.181 | < 5 | < 5 | 23.8 | good inhibitory activity | 56 | 1.93 | good inhibitory activity
CCNc1cc(-c2ccc(N3CC4CC(C3)N4Cc3ccc(-n4cc(F)cn4)nc3)nc2)c2c(C#N)cnn2c1 [Compound 52, 6-(ethylamino)-4-(6-(6-((6-(4-fluoro-1H-pyrazol-1-yl)pyridin-3-yl)methyl)-3,6-diazabicyclo[3.1.1]heptan-3-yl)pyridin-3-yl)pyrazolo[1,5-a]pyridine-3-carbonitrile] | < 5 | 142 | 2.02 | < 5 | < 5 |  |  | 39 |  | 
COc1ccc(CN2C3CC2CN(c2ccc(-c4cc(NCC(C)(C)O)cn5ncc(C#N)c45)cn2)C3)cn1 [Compound 63, 6-((2-hydroxy-2-methylpropyl)amino)-4-(6-(6-((6-methoxypyridin-3-yl)methyl)-3,6-diazabicyclo[3.1.1]heptan-3-yl)pyridin-3-yl)pyrazolo[1,5-a]pyridine-3-carbonitrile] |  | 3.39 | 0.47 |  |  | 76.9 | good inhibitory activity | 65.2 | 15 | good inhibitory activity
COc1ccc(CN2C3CC2CN(c2cnc(-c4cc(N5CCOCC5)cn5ncc(C#N)c45)cn2)C3)cn1 [Compound 66, 4-(5-(6-((6-methoxypyridin-3-yl)methyl)-3,6-diazabicyclo[3.1.1]heptyl-3-yl)pyrazin-2-yl)-6-morpholinopyrazolo[1,5-a]pyridine-3-carbonitrile] |  | 6.21 | 0.82 |  |  | 173 | good inhibitory activity | 318 | 26.7 | good inhibitory activity
COc1ccc(CN2C3CC2CN(c2ccc(-c4cc(NCC(C)C)cn5ncc(C#N)c45)cn2)C3)cn1 [Compound 67, 6-(isobutylamino)-4-(6-(6-((6-methoxypyridin-3-yl)methyl)-3,6-diazabicyclo[3.1.1]hept-3-yl)pyridin-3-yl)pyrazolo[1,5-a]pyridine-3-carbonitrile] |  | 2.19 | 0.15 |  |  | 90.9 | good inhibitory activity | 45.4 | 11 | good inhibitory activity
CCCCNc1cc(-c2ccc(N3CC4CC(C3)N4Cc3ccc(OC)nc3)nc2)c2c(C#N)cnn2c1 [Compound 68, 6-(butylamino)-4-(6-(6-((6-methoxypyridin-3-yl)methyl)-3,6-diazabicyclo[3.1.1]hept-3-yl)pyridin-3-yl)pyrazolo[1,5-a]pyridine-3-carbonitrile] |  | 4.19 | 0.37 |  |  | 49.1 | good inhibitory activity | 59.8 | 6.18 | good inhibitory activity
COc1ccc(CN2C3CC2CN(c2ccc(-c4cc(NC(C)C)cn5ncc(C#N)c45)cn2)C3)cn1 [Compound 69, 6-(isopropylamino)-4-(6-(6-((6-methoxypyridin-3-yl)methyl)-3,6-diazabicyclo[3.1.1]heptyl-3-yl)pyridin-3-yl)pyrazolo[1,5-a]pyridine-3-carbonitrile] |  | 4.14 | 0.47 |  |  | 42.4 | good inhibitory activity | 42.2 | 27 | good inhibitory activity
COc1ccc(CN2C3CC2CN(c2ccc(-c4cc(N5CCOCC5)cn5ncc(C#N)c45)cn2)C3)cn1 [Compound 70, 4-(6-(6-((6-methoxypyridin-3-yl)methyl)-3,6-diazabicyclo[3.1.1]heptyl-3-yl)pyridin-3-yl)-6-morpholinopyrazolo[1,5-a]pyridine-3-carbonitrile] |  | 1.97 | 0.24 |  |  | 31.4 | good inhibitory activity | 57.5 | 10.4 | good inhibitory activity
